Experimental data reported in patent US20120284853A1, “HERBICIDE-TOLERANT PLANTS” (BASF AGROCHEMICAL PRODUCTS, B.V., priority 2009, published 2012).

Experiments:
rice plants = test: Greenhouse spray test of M0 regenerants, rated for herbicide injury; assay type: in vivo; settings: 400-1600 g ai/ha with 0.1% methylated seed oil, subset 800 g ai/ha, rated 1 and 2 weeks after treatment
Method: Selected mutants and escapes were transferred to small pots. Wild-type cultivars and 3 biovars of red rice were germinated from seed to serve as controls.
After ca. 3 weeks post-transplant, M0 regenerants were sprayed using a track sprayer with 400-1600 g ai/ha cycloxydim (BAS 517H) supplemented with 0.1% methylated seed oil. After the plants had adapted to greenhouse conditions, a subset were sprayed with 800 g ai/ha cycloxydim. Once sprayed, plants were kept on drought conditions for 24 hours before being watered and fertilized again. Sprayed plants were photographed and rated for herbicide injury at 1 (FIG. 3) and 2 weeks after treatment (FIG. 4). […] FIGS. 5-15 provide nucleic acid and/or amino acid sequences of acetyl-Coenzyme A carboxylase enzymes from various plants. FIG. 17 provides a graph showing results for mutant rice versus various ACCase inhibitors.

[1] = tested on: ACCase-inhibitor tolerant rice plants; test: Field treatment of ACCase-inhibitor tolerant rice plants; assay type: in vivo; settings: 600 g/ha treatment; data not shown
[2] = tested on: rice calli derived from Oryza sativa subsp. indica; test: Kill curves of rice calli in tissue culture (toxic levels of ACCase inhibitors); assay type: cell-based; settings: determined by kill curves and observations of continued culture; rice calli on R001M
Method: FIG. 1 is a bar graph showing relative growth rice calli derived from Oryza sativa subsp. indica grown in the presence of difference selection levels of herbicide.
Once tissue culture conditions were determined, further establishment of selection conditions were established through the analysis of tissue survival in kill curves with cycloxydim, tepraloxydim, sethoxydim (FIG. 1) or haloxyfop (not shown). Careful consideration of accumulation of the herbicide in the tissue, as well as its persistence and stability in the cells and the culture media was performed. Through these experiments, a sub-lethal dose has been established for the initial selection of mutated material.
After the establishment of the starting dose of sethoxydim, cycloxydim, tepraloxydim, and haloxyfop in selection media, the tissues were selected in a step-wise fashion by increasing the concentration of the ACCase inhibitor with each transfer until cells are recovered that grew vigorously in the presence of toxic doses (see FIG. 2). […] Over 26,000 calli were subjected to selection for 4-5 subcultures until the selective pressure was above toxic levels as determined by kill curves and observations of continued culture. Toxic levels were determined to be 50 μM sethoxydim, 20 μM cycloxydim, 2.5 μM tepraloxydim (FIG. 1) and 10 μM haloxyfop (not shown).

CCCC(=NOCC)C1=C(O)CC(C2CCCSC2)CC1=O (centres unmarked) [cycloxydim]
herbicide injury (rice plants; control plants and tissue culture escapes): heavily damaged
herbicide injury (rice plants; plants containing the I1,781(Am)L heterozygous mutation): No injury
herbicide tolerance phenotype in the field [1]: Herbicide tolerance phenotypes as described herein have also been exhibited

CCC/C(=N\OCC)C1=C(O)CC(CC(C)SCC)CC1=O (centres unmarked) [sethoxydim]
Toxic levels [2]: 50 µM

CC/C(=N\OC/C=C/Cl)C1=C(O)CC(C2CCOCC2)CC1=O (centres unmarked) [tepraloxydim]
Toxic levels [2]: 2.5 µM
